Experimental data reported in ChEMBL document CHEMBL1949599, “Three novel cyclic hexapeptides from Streptomyces alboflavus 313 and their antibacterial activity” (2012).
Converted amounts (≈) assume the structure as drawn.

Experiments:
Assay type in all cases: functional
Escherichia coli = assay: Antibacterial activity against Escherichia coli CGMCC 1.1574 after 24 hrs by micro-broth dilution method; details: CGMCC 1.1574, 24 h
Bacillus cereus = assay: Antibacterial activity against Bacillus cereus CGMCC 1.1846 after 24 hrs by micro-broth dilution method; details: CGMCC 1.1846, 24 h
Staphylococcus aureus [1] = assay: Antibacterial activity against Staphylococcus aureus CGMCC 1.89 after 24 hrs by micro-broth dilution method; details: CGMCC 1.89, 24 h
Staphylococcus aureus [2] = assay: Antibacterial activity against methicillin-resistant Staphylococcus aureus after 24 hrs by micro-broth dilution method
Pseudomonas aeruginosa = assay: Antibacterial activity against Pseudomonas aeruginosa CGMCC 1.2031 after 24 hrs by micro-broth dilution method; details: CGMCC 1.2031, 24 h
Bacillus subtilis = assay: Antibacterial activity against Bacillus subtilis CGMCC 1.88 after 24 hrs by micro-broth dilution method; details: CGMCC 1.88, 24 h

Structure (SMILES)	MIC (Escherichia coli)	MIC (Bacillus cereus)	MIC (Staphylococcus aureus [1])	MIC (Staphylococcus aureus [2])	MIC (Pseudomonas aeruginosa)	MIC (Bacillus subtilis)
CC(C)[C@@H]1NC(=O)[C@@H]2C[C@@]3(O)c4ccc(Cl)cc4N[C@H]3N2C(=O)[C@H]2CCCNN2C(=O)[C@@H](C)N(C)C(=O)[C@H]2CCCNN2C(=O)[C@@H]2CCCNN2C1=O	> 100 µg/mL	12.5 µg/mL (≈ 16.5 µM)	6.25 µg/mL (≈ 8.25 µM)	6.25 µg/mL (≈ 8.25 µM)	> 100 µg/mL	12.5 µg/mL (≈ 16.5 µM)
CC(C)[C@H]1NC(=O)[C@@H]2C[C@@]3(O)c4ccc(Cl)cc4N[C@H]3N2C(=O)[C@H]2CCCNN2C(=O)[C@@H](C)NC(=O)[C@H]2CCCNN2C(=O)[C@@H]2CCCNN2C1=O	> 100 µg/mL	> 100 µg/mL	> 100 µg/mL	> 100 µg/mL	> 100 µg/mL	> 100 µg/mL
COC1=CC2C(=O)N(C)[C@@H](C)C(=O)N3NCCC[C@@H]3C(=O)N3[C@@H](C[C@@]4(O)c5ccc(Cl)cc5N[C@@H]34)C(=O)N[C@H](C(C)C)C(=O)N3NCCC[C@@H]3C(=O)N2N=C1 (stereo not given in full)	> 100 µg/mL	3.13 µg/mL (≈ 4 µM)	1.56 µg/mL (≈ 1.99 µM)	1.56 µg/mL (≈ 1.99 µM)	> 100 µg/mL	3.13 µg/mL (≈ 4 µM)
COC1C=NN2C(=O)[C@H]3CCCNN3C(=O)[C@@H](C(C)C)NC(=O)[C@@H]3C[C@@]4(O)c5ccc(Cl)cc5N[C@H]4N3C(=O)[C@H]3CCCNN3C(=O)[C@H](C)N(C)C(=O)C2C1 (stereo not given in full)	> 100 µg/mL	25 µg/mL (≈ 31.8 µM)	25 µg/mL (≈ 31.8 µM)	25 µg/mL (≈ 31.8 µM)	> 100 µg/mL	25 µg/mL (≈ 31.8 µM)
CC1(C)S[C@@H]2[C@H](NC(=O)[C@H](N)c3ccccc3)C(=O)N2[C@H]1C(=O)[O-].[Na+] [AMPICILLIN SODIUM]	3.13 µg/mL	6.25 µg/mL	6.25 µg/mL	> 100 µg/mL	> 100 µg/mL	1.56 µg/mL
